Key:
Assay type in all cases: in vivo
[1] = system: Carpophilus truncatus; assay: Field experiment of pheromone lure septa in an almond orchard (Example 3), C. truncatus catches; details: septa in bucket traps with co-attractant solution (45% ethanol, isopentyl alcohol) and Dichlorvos strip; 10 replicates; 6 weeks, samples fortnightly; p<0.001
Protocol: A field experiment was designed to test the attractancy of the previously described C. truncatus Pheromone 2 under field conditions and the pheromonal (attractant) activity of newly identified Pheromone 3. […] All pheromones were tested together with a co-attractant mixture in the form of an aqueous ethanol and isopentyl alcohol solution, which acts synergistically to elicit a strong behavioural response in C. truncatus.
Pheromone test lures were loaded on white Precision Seal® rubber septa (8 mm OD, Sigma Aldrich product code: Z553913) with butylated hydroxytoluene used an antioxidant. The quantities of individual compounds applied on the septa were determined by SPME-GC-MS analyses of test septa at days 1 and 3 to produce the two pheromones in approximately equal ratios. The quantity of antioxidant was chosen based on the existing literature as 10% of the ratio of the dominant pheromone (Table 2). Hexane dilutions of the neat pheromones were prepared, and desired quantities loaded onto the septa. […]
The field trial was carried out from December 2021 in a commercial almond orchard located near Mildura, Victoria, Australia. […] Beetles present in different traps were identified and counted under a stereomicroscope. […]
Field data were analysed using a Generalized Linear Mixed Model (GLMM) fitted with a negative binomial distribution using the glmmTMB package (Brooks et al. 2019). […]

[2] = system: Carpophilus truncatus; assay: Two-week field trial of lure treatments (Example 4), C. truncatus catches; details: 20 repeats per treatment, with co-attractant, high beetle populations
Protocol: (§1) A short trial was carried out over two weeks. Treatments were randomised and replicated in 10 tree rows with approximately 50 m spacing between traps (10 rows×2 treatments—20 repeats per treatment; 3 treatments of 20 repeats is 60 traps used). The treatments are shown in Table 3: Data was analysed in a similar way to Example 3 using GLMM with trap catches as response variable, lure treatment as fixed factor and row and column as random (spatial features). Turkey's adjusted post hoc tests for multiple comparisons of a family of three estimates. The results of the mixed model are: Wald χ2=[…], p=2.64 10^−14.

[3] = system: other Carpophilus species; assay: Two-week field trial of lure treatments (Example 4), catches of other Carpophilus species; details: 20 repeats per treatment, with co-attractant
Protocol: as §1

SMILES | C. truncatus beetle catches [1] | C. truncatus beetles caught [2] | Other Carpophilus species beetles caught [3]
C/C=C(C)/C=C(C)/C=C(C)/C=C/CC [Phero 2, (E,E,E,E)-3,5,7-trimethyl-2,4,6,8-undecatetraene] | caught significantly more beetles than the commercial tri-species septa | – | –
CCCCCCCCCCCCCC=O [Phero 3, tetradecanal] | – | caught significantly less C. truncatus and other Carpophilus species beetles than Phero 2 and Phero 2+Phero 3 | caught significantly less C. truncatus and other Carpophilus species beetles than Phero 2 and Phero 2+Phero 3
